Measured values: US12187727B2, “Methods for antagonizing a melanocortin 4 receptor” (Pfizer Inc., priority 2020, dated 2025)

molecular target: human Melanocortin-4 receptor (MC4R) (Homo sapiens (Human), UniProt P32245); assay: Functional in vitro MC4R antagonist potency assay (cAMP HTRF in CHO cells); format: cell-based; settings: human MC4R in CHO cells, cAMP HTRF, 200 nM aMSH challenge; Kb from IC50 by Leff-Dougall equation; geometric mean; read-out: Kb (nM) Antagonist geometric
Method: Example BB. Functional In Vitro MC4R Antagonist Potency Assay
The functional in vitro antagonist potency for test compounds was determined by monitoring intracellular cyclic adenosine monophosphate (cAMP) levels in Chinese hamster ovary (CHO—) cells stably expressing the human Melanocortin-4 receptor (MC4R). Following agonist activation, human MC4R associates with the G-protein complex causing the Gα subunit to exchange bound GDP for GTP, followed by dissociation of the Ga-GTP complex. The activated Gα subunit can couple to downstream effectors to regulate the levels of second messengers or cAMP within the cell. Thereby, determination of intracellular cAMP levels allows for pharmacological characterization. Intracellular cAMP levels are quantitated using a homogenous assay utilizing the Homogeneous Time-Resolved Fluorescence (HTRF) technology from CisBio. The method is a competitive immunoassay between native cAMP produced by cells and the cAMP labelled with the acceptor dye, d2. The two entities then compete for binding to a monoclonal anti-cAMP antibody labeled with cryptate. The specific signal is inversely proportional to the concentration of cAMP in the cells.
Test compounds were solubilized to 30 mM in 100% dimethyl sulfoxide (DMSO) and stored. […] The final compound concentration range in the assay was 400 nM to […], with a final DMSO concentration of 0.1%.
(95% O2: 5% CO2) overnight, with micro-clime lids (Labcyte, Cat No. LLS-0310). […] Cells were incubated with compound for 30 minutes at 37° C. (95% O2: 5% CO2) before addition of 5 μL EC80, agonist stimulation (200 nM α-melanocyte stimulating hormone, aMSH, Bachem) and another 30-minute incubation at 37° C. (95% O2: 5% CO2). Intracellular cAMP levels were quantified as per Cisbio's protocol (5 uL of D2 and then 5 uL Cryptate, incubated for 1-2 hours at room temperature).
Data expressed as nM cAMP were then normalized to control wells using Activity Base (IDBS). Zero percent effect (ZPE) was defined as nM of cAMP generated from ECK, agonist stimulation (200 nM aMSH). In the absence of an antagonist control compound, one hundred percent effect (HPE) was defined as nM of cAMP generated from assay buffer/vehicle only.

Chain of human Melanocortin-4 receptor (MC4R) (P32245 whole entry): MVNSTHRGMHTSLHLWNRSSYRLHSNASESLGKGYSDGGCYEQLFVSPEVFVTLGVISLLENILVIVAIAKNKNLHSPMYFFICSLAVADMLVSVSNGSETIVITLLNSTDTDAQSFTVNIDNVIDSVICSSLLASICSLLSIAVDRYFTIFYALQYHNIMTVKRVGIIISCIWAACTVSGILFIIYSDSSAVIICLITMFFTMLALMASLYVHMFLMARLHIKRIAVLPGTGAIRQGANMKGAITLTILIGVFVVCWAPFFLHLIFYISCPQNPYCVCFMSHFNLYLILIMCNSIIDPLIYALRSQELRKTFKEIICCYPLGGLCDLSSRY

| Kb [nM] | Compound |
| --- | --- |
| 1.7 | COc1cc([C@@H](C)C(=O)N2CC[C@]3(CCc4cc(-c5nnn(C)n5)c(C)nc4N3)C2)c(F)cn1 [Example 116, (2R)-2-(5-fluoro-2-methoxypyridin-4-yl)-1-[(2R)-7-methyl-6-(2-methyl-2H-tetrazol-5-yl)-3,4-dihydro-1H-spiro[1,8-naphthyridine-2,3′-pyrrolidin]-1′-yl]propan-1-one] |
| 0.07 | COc1cc([C@@H](C)C(=O)N2CC[C@@]3(CCc4cc(-c5nc6ccccn6n5)c(C)nc4N3)C2)c(Cl)cn1 [Example 117, (2R)-2-(5-chloro-2-methoxypyridin-4-yl)-1-[(2S)-7-methyl-6-([1,2,4]triazolo[1,5-a]pyridin-2-yl)-3,4-dihydro-1H-spiro[1,8-naphthyridine-2,3′-pyrrolidin]-1′-yl]propan-1-one] |
| 0.93 | COc1cc([C@@H](C)C(=O)N2CC[C@@]3(CCc4cc(-c5cnn(C)n5)c(C)nc4N3)C2)c(F)cn1 [Example 118, (2R)-2-(5-fluoro-2-methoxypyridin-4-yl)-1-[(2S)-7-methyl-6-(2-methyl-2H-1,2,3-triazol-4-yl)-3,4-dihydro-1H-spiro[1,8-naphthyridine-2,3′-pyrrolidin]-1′-yl]propan-1-one] |
| > 1.1 | COc1cc([C@@H](C)C(=O)N2CC[C@@]3(CCc4cc(-c5cnn(C)n5)c(C)nc4N3)C2)c(Cl)cn1 [Example 119, (2R)-2-(5-chloro-2-methoxypyridin-4-yl)-1-[(2S)-7-methyl-6-(2-methyl-2H-1,2,3-triazol-4-yl)-3,4-dihydro-1H-spiro[1,8-naphthyridine-2,3′-pyrrolidin]-1′-yl]propan-1-one] |
| 0.08 | COc1cc([C@@H](C)C(=O)N2CC[C@@]3(CCc4cc(-c5nc(C(F)F)n(C)n5)c(C)nc4N3)C2)c(Cl)cn1 [Example 120, (2R)-2-(5-chloro-2-methoxypyridin-4-yl)-1-{(2S)-6-[5-(difluoromethyl)-1-methyl-1H-1,2,4-triazol-3-yl]-7-methyl-3,4-dihydro-1H-spiro[1,8-naphthyridine-2,3′-pyrrolidin]-1′-yl}propan-1-one] |
| 4 | Cc1nc2c(cc1-c1nc(C(F)F)n(C)n1)CC[C@@]1(CCN(C(=O)Cc3ccc(F)c(F)c3)C1)N2 [Example 121, 1-{(2S)-6-[5-(difluoromethyl)-1-methyl-1H-1,2,4-triazol-3-yl]-7-methyl-3,4-dihydro-1H-spiro[1,8-naphthyridine-2,3′-pyrrolidin]-1′-yl}-2-(3,4-difluorophenyl)ethan-1-one] |
| 0.11 | COc1cc([C@@H](C)C(=O)N2CC[C@@]3(CCc4cc(-c5nc(C(F)F)n(C)n5)c(C)nc4N3)C2)c(F)cn1 [Example 122, (2R)-1-{(2S)-6-[5-(difluoromethyl)-1-methyl-1H-1,2,4-triazol-3-yl]-7-methyl-3,4-dihydro-1H-spiro[1,8-naphthyridine-2,3′-pyrrolidin]-1′-yl}-2-(5-fluoro-2-methoxypyridin-4-yl)propan-1-one] |
| 16 | COc1cc([C@@H](C)C(=O)N2CC[C@@]3(CCc4cc(C5CCOCC5)c(C)nc4N3)C2)c(F)cn1 [Example 131, (2R)-2-(5-fluoro-2-methoxypyridin-4-yl)-1-[(2S)-7-methyl-6-(oxan-4-yl)-3,4-dihydro-1H-spiro[1,8-naphthyridine-2,3′-pyrrolidin]-1′-yl]propan-1-one] |
| 0.44 | COc1cc([C@@H](C)C(=O)N2CC[C@@]3(CCc4cc(-c5cn(C(F)F)c(C)n5)c(C)nc4N3)C2)c(F)cn1 [Example 138, (2R)-1-{(2S)-6-[1-(difluoromethyl)-2-methyl-1H-imidazol-4-yl]-7-methyl-3,4-dihydro-1H-spiro[1,8-naphthyridine-2,3′-pyrrolidin]-1′-yl}-2-(5-fluoro-2-methoxypyridin-4-yl)propan-1-one] |
| 21 | COc1cc([C@@H](C)C(=O)N2CC[C@@]3(CCc4cc(-c5ccc(F)cn5)c(C)nc4N3)C2)c(F)cn1 [Example 139, (2R)-2-(5-fluoro-2-methoxypyridin-4-yl)-1-[(2S)-6-(5-fluoropyridin-2-yl)-7-methyl-3,4-dihydro-1H-spiro[1,8-naphthyridine-2,3′-pyrrolidin]-1′-yl]propan-1-one] |
| 19 | COc1cc([C@@H](C)C(=O)N2CC[C@@]3(CCc4cc(-c5ccccn5)c(C)nc4N3)C2)c(F)cn1 [Example 140, (2R)-2-(5-fluoro-2-methoxypyridin-4-yl)-1-[(2S)-7-methyl-6-(pyridin-2-yl)-3,4-dihydro-1H-spiro[1,8-naphthyridine-2,3′-pyrrolidin]-1′-yl]propan-1-one] |
| 29 | COc1cc([C@@H](C)C(=O)N2CC[C@@]3(CCc4cc(-c5ccnnc5)c(C)nc4N3)C2)c(F)cn1 [Example 141, (2R)-2-(5-fluoro-2-methoxypyridin-4-yl)-1-[(2S)-7-methyl-6-(pyridazin-4-yl)-3,4-dihydro-1H-spiro[1,8-naphthyridine-2,3′-pyrrolidin]-1′-yl]propan-1-one] |
| 2.6 | COc1cc([C@@H](C)C(=O)N2CC[C@@]3(CCc4cc(-c5nccc(C(F)(F)F)n5)c(C)nc4N3)C2)c(F)cn1 [Example 143, (2R)-2-(5-fluoro-2-methoxypyridin-4-yl)-1-{(2S)-7-methyl-6-[4-(trifluoromethyl)pyrimidin-2-yl]-3,4-dihydro-1H-spiro[1,8-naphthyridine-2,3′-pyrrolidin]-1′-yl}propan-1-one] |
| 8.5 | COc1cc([C@@H](C)C(=O)N2CC[C@@]3(CCc4cc(-c5ncc(Cl)cn5)c(C)nc4N3)C2)c(F)cn1 [Example 144, (2R)-1-[(2S)-6-(5-chloropyrimidin-2-yl)-7-methyl-3,4-dihydro-1H-spiro[1,8-naphthyridine-2,3′-pyrrolidin]-1′-yl]-2-(5-fluoro-2-methoxypyridin-4-yl)propan-1-one] |
| 54 | COc1cc([C@@H](C)C(=O)N2CC[C@@]3(CCc4cc(-c5ncc(C(F)(F)F)cn5)c(C)nc4N3)C2)c(F)cn1 [Example 145, (2R)-2-(5-fluoro-2-methoxypyridin-4-yl)-1-{(2S)-7-methyl-6-[5-(trifluoromethyl)pyrimidin-2-yl]-3,4-dihydro-1H-spiro[1,8-naphthyridine-2,3′-pyrrolidin]-1′-yl}propan-1-one] |
| 1.2 | COc1cc([C@@H](C)C(=O)N2CC[C@@]3(CCc4cc(-c5ncc(F)cn5)c(C)nc4N3)C2)c(F)cn1 [Example 146, (2R)-2-(5-fluoro-2-methoxypyridin-4-yl)-1-[(2S)-6-(5-fluoropyrimidin-2-yl)-7-methyl-3,4-dihydro-1H-spiro[1,8-naphthyridine-2,3′-pyrrolidin]-1′-yl]propan-1-one] |
| 0.57 | COc1cc([C@@H](C)C(=O)N2CC[C@@]3(CCc4cc(-c5nc6n(n5)CCC6(F)F)c(C)nc4N3)C2)c(F)cn1 [Example 147, (2R)-1-[(2S)-6-(7,7-difluoro-6,7-dihydro-5H-pyrrolo[12-b][1,2,4]triazol-2-yl)-7-methyl-3,4-dihydro-1H-spiro[1,8-naphthyridine-2,3′-pyrrolidin]-1′-yl]-2-(5-fluoro-2-methoxypyridin-4-yl)propan-1-one] |
| 9 | COc1cc([C@@H](C)C(=O)N2CC[C@@]3(CCc4cc(-c5cnsc5)c(C)nc4N3)C2)c(F)cn1 [Example 150, (2R)-2-(5-fluoro-2-methoxypyridin-4-yl)-1-[(2S)-7-methyl-6-(1,2-thiazol-4-yl)-3,4-dihydro-1H-spiro[1,8-naphthyridine-2,3′-pyrrolidin]-1′-yl]propan-1-one] |

same assay, conditions: read-out: Kb (nM) Antagonist geometric mean

| Kb [nM] | Compound |
| --- | --- |
| 14 | COc1cnc(-c2cc3c(nc2C)N[C@@]2(CC3)CCN(C(=O)[C@H](C)c3cc(OC)ncc3F)C2)nc1 [Example 67, (2R)-2-(5-fluoro-2-methoxypyridin-4-yl)-1-[(2S)-6-(5-methoxypyrimidin-2-yl)-7-methyl-3,4-dihydro-1H-spiro[1,8-naphthyridine-2,3′-pyrrolidin]-1′-yl]propan-1-one] |
| 17 | Cc1nc2c(cc1-c1ncccn1)CC[C@@]1(CCN(C(=O)Cc3ccc(C(F)(F)F)cc3)C1)N2 [Example 73, 1-[(2S)-7-methyl-6-(pyrimidin-2-yl)-3,4-dihydro-1H-spiro[1,8-naphthyridine-2,3′-pyrrolidin]-1yl]-2-[4-(trifluoromethyl)phenyl]ethan-1-one] |
| 0.6 | [2H]C([2H])([2H])Oc1cc([C@@H](C)C(=O)N2CC[C@@]3(CCc4cc(-c5ncccn5)c(C)nc4N3)C2)c(F)cn1 [Example 74, (2R)-2-{5-fluoro-2-[(^2H3)methyloxy]pyridin-4-yl}-1-[(2S)-7-methyl-6-(pyrimidin-2-yl)-3,4-dihydro-1H-spiro[1,8-naphthyridine-2,3′-pyrrolidin]-1′-yl]propan-1-one] |
